Reference: publication PMC12622802, “Potent kinase inhibitors from the Merck KGaA OGHL: Novel hits against Trypanosoma brucei with potential for repurposing” (PLOS Neglected Tropical Diseases, 2025)
Entries after “also recorded” stand apart in the source; their conditions may differ. Where two headings read alike, the source gives them in different places.

How the values were obtained:
[1] = system: bloodstream forms of T. b. brucei; assay: Rescue experiment (4 h exposure, washout, drug-free medium); assay type: cell-based, Trypanosoma brucei brucei; settings: 72 hours monitoring, 4xIC50 and 8xIC50
Method: (§1) To evaluate the killing kinetics of selected compounds, bloodstream forms of T. b. brucei (2 x 10⁵ cells/mL) were incubated in normal culture conditions in the presence of compounds at 8IC50, 4IC50, IC50, and 0.25IC50 concentrations in 24-well plates. Upon incubation, cultures were centrifuged at 0, 4, 8, 12, 24, 30, 36, 48, 60, and 72 hours’ time intervals at 2,500 rpm followed by motile trypanosomes enumeration using a Lumascope LS520 inverted microscope. To determine the mode of inhibition (parasitostatic or parasiticidal), a rescue experiment was conducted. Trypanosomes were exposed to the test doses (8IC50, 4IC50, IC50, and 0.25IC50) of the compounds for 4 hours. They were then washed three times with phosphate buffer saline (DPBS 1X), centrifuged at 2,500 rpm for 7 minutes, and resuspended in complete drug-free medium. These parasites were cultured under the same conditions, and motile organisms were enumerated with the Neubauer chamber at regular intervals over 72 hours. Data were plotted using GraphPad Prism 8.0 to determine the inhibition kinetics and classify the inhibitors as cidal or static. Pentamidine isethionate served as the reference compound and experiments were performed in duplicate.

[2] = target: TANK-binding kinase 1 (TBK1); set-up: method as in ref 37 = [37]; 37 Dorsch D , Wucherer-Plietker M , Mueller TJ , Merkul E . 3-([1,2,3]triazole-4-yl)-pyrrolo[2,3-b]pyridine derivates . World Intellectual Property Organization . 2010 . https://patents.google.com/pat; settings: cited from earlier work
[3] = Cytotoxicity, resazurin reduction assay, Raw264.7; assay type: cell-based, murine; settings: mouse
Method: (§2) For cytotoxicity testing, they were seeded (90 µL) in 96-well plates at a density of 1x10^4 cells/well, in duplicate, and allowed to adhere overnight. […] Cell viability was then assessed using the resazurin reduction assay, as described above. […] Data were analysed using Microsoft Excel and GraphPad Prism 8.0. Nonlinear regression with a sigmoidal dose-response fit model was applied to the data to determine IC50 and CC50 values. Results represent the mean ± standard deviation (SD) from two independent experiments performed in duplicate.

[4] = system: bloodstream forms of T. b. brucei; assay: Trypanosome killing kinetics (time-kill assay); assay type: cell-based, Trypanosoma brucei brucei; settings: 8IC50, 4IC50, IC50, 0.25IC50; over 72 hours
Method: as §1

[5] = system: normal cells; set-up: method as in ref 37 = [37]; 37 Dorsch D , Wucherer-Plietker M , Mueller TJ , Merkul E . 3-([1,2,3]triazole-4-yl)-pyrrolo[2,3-b]pyridine derivates . World Intellectual Property Organization . 2010 . https://patents.google.com/pat; settings: cited from earlier work
[6] = Cytotoxicity, resazurin reduction assay, Vero; assay type: cell-based; settings: African green monkey
Method: as §2

[7] = system: bloodstream forms of T. b. brucei Lister 427; assay: Resazurin reduction growth inhibition assay against bloodstream forms of T. b. brucei; assay type: cell-based, Trypanosoma brucei brucei; settings: 72 hours, read-out: IC50 ± SD (µM) T. b. b.
Method: Bloodstream forms of T. b. brucei Lister 427, a virulent laboratory strain of Trypanosoma brucei were cultured in HMI-9 medium as previously described. […] The resulting signal measured between 570 nm and 590 nm, is directly proportional to the quantity of viable parasites. […] After incubation, a working solution of resazurin (0.15 mg/mL in DPBS) was added to the plates in a 1:10 (v/v) ratio, followed by incubation for 4 hours at 37 °C with 5% CO2. Fluorescence was measured using an Infinite M200 microplate reader (Tecan) at excitation and emission wavelengths of 530 nm and 590 nm, respectively. Compound achieving ≥ 50% inhibition of trypanosomes were selected for further dose-response studies.
Compounds that adhered to the cutoff criterion (≥ 50% inhibition) were serially diluted and tested for their half-maximal inhibitory concentrations (IC50). […] Dose-response curves were generated using GraphPad Prism software (version 8.0). […]
Data were analysed using Microsoft Excel and GraphPad Prism 8.0. Nonlinear regression with a sigmoidal dose-response fit model was applied to the data to determine IC50 and CC50 values.

[8] = Cytotoxicity, resazurin reduction assay, HepG2; assay type: cell-based, human; settings: human
Method: Vero E6 (African green monkey kidney), Raw264.7 (murine macrophages) and HepG2 (human hepatocyte carcinoma) cell lines, sourced from the American Type Culture Collection, were cultured in DMEM supplemented with 10% (v/v) heat-inactivated fetal bovine serum, 1% (v/v) non-essential amino acids, and 1% (v/v) penicillin-streptomycin. Cells were maintained at 37 °C in a 5% CO2 atmosphere. For cytotoxicity testing, they were seeded (90 µL) in 96-well plates at a density of 1x10^4 cells/well, in duplicate, and allowed to adhere overnight. Serial dilutions (50-0.08 µM) of the compounds were prepared, and 10 µL of each were incubated with the monolayer for 48 hours. Podophyllotoxin was tested as a positive control at 10 μM and 0.5% DMSO (100% cell viability) was used as negative control. Cell viability was then assessed using the resazurin reduction assay, as described above. The 50% cytotoxic concentration (CC50) was calculated using GraphPad Prism software (version 8.0), and selectivity indices (SIs) were determined by dividing the […].
Data were analysed using Microsoft Excel and GraphPad Prism 8.0. Nonlinear regression with a sigmoidal dose-response fit model was applied to the data to determine IC50 and CC50 values. Results represent the mean ± standard deviation (SD) from two independent experiments performed in duplicate.

[9] = HAT regimens; cited from earlier work

Compound | effect after short exposure and washout (reversible or irreversible) [1] | IC50 [2] [nM] | CC50 at 48 h [3] [nM] | activity profile in time-kill assay (trypanocidal or cytostatic) [4] | CC50 [5] [nM] | CC50 at 48 h [6] [nM] | IC50 ([7]; Trypanosoma brucei, 72 h, confirmation screen, powdered form) [µM] | IC50 ([7]; Trypanosoma brucei, 72 h, primary screen, DMSO stock solution, bloodstream form T. b. brucei Lister 427) [µM] | IC50 ([7]; primary screen, DMSO stock solution, bloodstream form T. b. brucei Lister 427) [µM] | CC50 at 48 h [8] [nM] | fatal encephalopathy, percentage of cases [9]
Cn1cc(-c2cnc3[nH]cc(-c4cn(Cc5cccc(F)c5F)nn4)c3c2)cn1 [OGHL00169, 3-(1-(2,3-difluorobenzyl)-1H-1,2,3-triazol-4-yl)-5-(1-methyl-1H-pyrazol-4-yl)-1H-pyrrolo[2,3-b]pyridine] | irreversible trypanocidal activity; also recorded: irreversible trypanocidal effects | 0.196 | 12100 ± 1600 | strong trypanocidal activity | 1000 to 10000 | 2800 ± 30 | 0.25 ± 0.04 | ≤ 1 | 0.85 ± 0.02 | 50000 | –
Nc1nc(N)nc(Nc2ccc([As]3SCC(CO)S3)cc2)n1 (centres unmarked) [melarsoprol] | – | – | – | – | – | – | – | – | – | – | 5–10%
